Results from US10765764B2, “Probes for imaging huntingtin protein” (CHDI Foundation, Inc., priority 2015, dated 2020).

The compounds below were run against T1, Q46 protein aggregates (Homo sapiens, UniProt P42858) (assay: Q46 Radioligand Binding Assay (RBA), displacement of [^3H3]MK-3328). Settings: 10 nM [^3H3]MK-3328, 5 μM Q46 protein aggregates.
T1 construct: fused on or other part: An N-terminal GST tag, cleaved off with thrombin before the assay to trigger aggregation
T1 sequence (P42858 with tags, fused parts or gaps with the stated changes, form open): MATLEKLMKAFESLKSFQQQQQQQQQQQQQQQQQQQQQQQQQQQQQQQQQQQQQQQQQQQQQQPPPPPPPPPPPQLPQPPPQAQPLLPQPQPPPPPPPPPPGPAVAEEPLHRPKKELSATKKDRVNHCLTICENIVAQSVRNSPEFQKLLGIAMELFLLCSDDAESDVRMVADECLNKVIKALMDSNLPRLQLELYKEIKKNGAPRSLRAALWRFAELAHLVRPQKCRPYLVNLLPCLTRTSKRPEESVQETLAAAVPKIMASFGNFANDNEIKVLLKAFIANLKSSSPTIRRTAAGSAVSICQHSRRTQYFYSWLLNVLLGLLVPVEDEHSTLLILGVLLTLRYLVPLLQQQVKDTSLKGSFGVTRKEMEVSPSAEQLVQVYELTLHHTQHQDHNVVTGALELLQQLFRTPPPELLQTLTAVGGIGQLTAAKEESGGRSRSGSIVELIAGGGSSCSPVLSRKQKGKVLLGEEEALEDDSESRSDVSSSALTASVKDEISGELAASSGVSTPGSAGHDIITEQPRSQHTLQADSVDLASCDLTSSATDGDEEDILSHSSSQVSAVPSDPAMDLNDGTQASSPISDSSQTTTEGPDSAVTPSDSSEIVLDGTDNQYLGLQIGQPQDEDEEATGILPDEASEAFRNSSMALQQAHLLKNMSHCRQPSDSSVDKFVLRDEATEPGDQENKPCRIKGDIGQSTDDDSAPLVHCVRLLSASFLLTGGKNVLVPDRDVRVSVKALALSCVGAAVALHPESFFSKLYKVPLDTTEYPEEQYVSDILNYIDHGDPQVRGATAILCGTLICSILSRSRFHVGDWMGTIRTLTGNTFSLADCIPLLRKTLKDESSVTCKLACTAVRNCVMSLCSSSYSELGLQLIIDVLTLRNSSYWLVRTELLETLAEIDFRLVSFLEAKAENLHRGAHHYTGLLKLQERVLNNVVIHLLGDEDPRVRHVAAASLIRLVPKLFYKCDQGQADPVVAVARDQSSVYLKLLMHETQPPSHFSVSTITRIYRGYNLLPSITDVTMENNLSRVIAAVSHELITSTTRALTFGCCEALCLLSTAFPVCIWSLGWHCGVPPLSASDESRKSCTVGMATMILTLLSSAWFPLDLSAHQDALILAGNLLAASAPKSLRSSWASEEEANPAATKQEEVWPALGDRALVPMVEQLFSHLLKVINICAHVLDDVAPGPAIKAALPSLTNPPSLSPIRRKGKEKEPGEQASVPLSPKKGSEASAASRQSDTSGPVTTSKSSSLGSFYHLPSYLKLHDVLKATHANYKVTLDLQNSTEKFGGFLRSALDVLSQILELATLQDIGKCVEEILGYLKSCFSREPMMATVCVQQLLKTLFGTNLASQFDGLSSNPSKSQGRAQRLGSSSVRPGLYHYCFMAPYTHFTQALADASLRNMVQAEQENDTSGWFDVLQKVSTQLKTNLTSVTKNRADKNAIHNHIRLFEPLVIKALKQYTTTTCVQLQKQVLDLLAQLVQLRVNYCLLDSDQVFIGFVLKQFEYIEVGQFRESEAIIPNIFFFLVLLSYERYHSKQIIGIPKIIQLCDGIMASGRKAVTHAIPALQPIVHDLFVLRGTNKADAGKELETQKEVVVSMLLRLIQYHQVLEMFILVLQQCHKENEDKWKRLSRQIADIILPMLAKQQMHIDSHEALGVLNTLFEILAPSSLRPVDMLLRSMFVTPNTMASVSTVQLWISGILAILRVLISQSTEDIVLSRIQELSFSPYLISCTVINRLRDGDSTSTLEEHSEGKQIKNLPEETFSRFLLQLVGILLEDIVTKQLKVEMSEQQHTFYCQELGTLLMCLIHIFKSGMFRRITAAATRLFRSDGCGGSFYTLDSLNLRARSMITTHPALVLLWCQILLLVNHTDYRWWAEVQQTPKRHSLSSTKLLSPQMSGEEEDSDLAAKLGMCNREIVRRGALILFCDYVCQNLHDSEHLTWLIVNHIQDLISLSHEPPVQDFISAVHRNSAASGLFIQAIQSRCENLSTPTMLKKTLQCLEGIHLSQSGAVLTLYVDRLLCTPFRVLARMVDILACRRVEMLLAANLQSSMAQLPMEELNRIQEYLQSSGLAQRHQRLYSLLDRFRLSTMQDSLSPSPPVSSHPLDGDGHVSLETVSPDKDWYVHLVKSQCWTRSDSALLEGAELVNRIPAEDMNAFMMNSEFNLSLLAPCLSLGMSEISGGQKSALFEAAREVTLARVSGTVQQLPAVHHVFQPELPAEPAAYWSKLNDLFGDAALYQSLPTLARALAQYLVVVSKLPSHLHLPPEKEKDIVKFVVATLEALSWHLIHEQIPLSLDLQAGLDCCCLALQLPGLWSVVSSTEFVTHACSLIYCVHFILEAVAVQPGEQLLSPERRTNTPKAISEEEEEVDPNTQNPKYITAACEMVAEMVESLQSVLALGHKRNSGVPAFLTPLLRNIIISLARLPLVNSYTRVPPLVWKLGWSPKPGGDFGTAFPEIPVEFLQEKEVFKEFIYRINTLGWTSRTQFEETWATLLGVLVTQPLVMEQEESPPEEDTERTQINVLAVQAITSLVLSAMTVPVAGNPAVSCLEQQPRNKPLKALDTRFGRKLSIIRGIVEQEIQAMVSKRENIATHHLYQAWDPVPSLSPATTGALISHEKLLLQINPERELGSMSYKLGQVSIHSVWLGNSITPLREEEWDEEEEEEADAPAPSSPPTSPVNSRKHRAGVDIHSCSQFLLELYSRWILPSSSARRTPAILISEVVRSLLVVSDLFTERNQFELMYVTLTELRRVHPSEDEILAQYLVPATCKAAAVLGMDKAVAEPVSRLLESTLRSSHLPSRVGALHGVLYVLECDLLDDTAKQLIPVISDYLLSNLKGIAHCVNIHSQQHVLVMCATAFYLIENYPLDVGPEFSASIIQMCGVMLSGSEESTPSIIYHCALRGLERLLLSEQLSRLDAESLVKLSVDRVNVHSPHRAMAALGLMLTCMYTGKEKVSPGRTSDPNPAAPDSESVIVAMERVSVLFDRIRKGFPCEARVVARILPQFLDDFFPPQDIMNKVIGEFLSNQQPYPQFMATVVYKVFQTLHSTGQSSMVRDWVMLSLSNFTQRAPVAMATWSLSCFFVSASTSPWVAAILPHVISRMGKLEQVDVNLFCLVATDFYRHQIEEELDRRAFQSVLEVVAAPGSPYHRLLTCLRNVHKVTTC
Procedure: For radioligand binding assays (RBA) GST-Q46 protein was generated based on a previous publication (Scherzinger et al. Cell, Vol. 90, 549-558, Aug. 8, 1997). For experiments 33 μM GST-Q46 was incubated with 150 μg/mL thrombin in assay buffer (150 mM NaCl, 50 mM Tris pH 8.0) and 2 mM CaCl2 for 16 hours at 37° C. Aggregated Q46 was pelleted by centrifugation for 5 minutes at 13,000 rpm in a bench top centrifuge and re-dissolved in the same volume of assay buffer. Test compounds were prepared by titration in DMSO at 11 concentrations from 33 μM to 1 nM. For the RBA, Q46 protein aggregates and test compounds were pre-incubated in assay buffer for 20 minutes at room temperature, in 140 μL/well in a 96-well plate (pp, round bottom). Then, ligand was added in 10 μL/well and incubated for 60 minutes at 37° C. Final assay concentrations were 1 μM to 30 pM test compound, 5 μM Q46 protein (equivalent monomer concentration) and 10 nM ligand [^3H3]MK-3328 (Harrision et al., ACS Med. Chem. Lett., 2 (2011), pp 498-502). Samples were transferred onto GF/B filter plates and washed 2× with 200 μL PBS using a Filtermate Harvester. After drying filter plates for 1 hour at 37° C., the back of the plates was sealed with foil and 30 μl/well scintillation fluid (Packard MicroScint 40) was added, incubated for incubated for 15 minutes in the dark and counted in a TopCount reader. For analysis, replicate data from independent assay plates were normalized towards 0% and 100% inhibition using control wells of vehicle (0% inhibition) and 3 μM unlabelled MK-3328 (100% inhibition). IC50 values were determined with a sigmoidal inhibition model with four variables (top, bottom, slope, IC50) in a global fit using the normalized replicate data.
`COc1ccc2c(c1)sc1nc(C(=O)Nc3cncnc3)cn12` [10-methoxy-N-(pyrimidin-5-yl)-7-thia-2,5-diazatricyclo[6.4.0.0^2,6]dodeca-1(12),3,5,8,10-pentaene-4-carboxamide] gave an IC50 of under 100 nM. `COc1ccc2c(c1)sc1nc(C(=O)Nc3ccc(-c4cccnc4)cn3)cn12` [10-methoxy-N-[5-(pyridin-3-yl)pyridin-2-yl]-7-thia-2,5-diazatricyclo[6.4.0.0^2,6]dodeca-1(12),3,5,8,10-pentaene-4-carboxamide] was tested, and the IC50 was under 100 nM. Work on `CNC(=O)c1ccc(NC(=O)c2cn3c(n2)sc2cc(OC)ccc23)cn1` [10-methoxy-N-[6-(methylcarbamoyl)pyridin-3-yl]-7-thia-2,5-diazatricyclo[6.4.0.0^2,6]dodeca-1(12),3,5,8,10-pentaene-4-carboxamide] yielded an IC50 of under 100 nM. Compound `COc1ccc2c(c1)sc1nc(C(=O)N(C)c3cccnc3)cn12` [10-methoxy-N-methyl-N-(pyridin-3-yl)-7-thia-2,5-diazatricyclo[6.4.0.0^2,6]dodeca-1(12),3,5,8,10-pentaene-4-carboxamide] has an IC50 of 100 to 500 nM. Compound `CNCc1cccc(NC(=O)c2cn3c(n2)sc2cc(OC)ccc23)c1` [10-methoxy-N-{3-[(methylamino)methyl]phenyl}-7-thia-2,5-diazatricyclo[6.4.0.0^2,6]dodeca-1(8),3,5,9,11-pentaene-4-carboxamide] has an IC50 of under 100 nM. `COc1cncc(NC(=O)c2cn3c(n2)sc2ncc(Br)cc23)c1` [11-bromo-N-(5-methoxypyridin-3-yl)-7-thia-2,5,9-triazatricyclo[6.4.0.0^2,6]dodeca-1(12),3,5,8,10-pentaene-4-carboxamide] gave an IC50 of under 100 nM. In the case of `COc1cnc2sc3nc(C(=O)Nc4ccc(=O)n(C)n4)cn3c2c1` [11-methoxy-N-(1-methyl-6-oxo-1,6-dihydropyridazin-3-yl)-7-thia-2,5,9-triazatricyclo[6.4.0.0^2,6]dodeca-1(12),3,5,8,10-pentaene-4-carboxamide], the IC50 is reported as under 100 nM. Work on `COc1cncc(NC(=O)c2cn3c(n2)sc2ncc(OC)cc23)c1` [11-methoxy-N-(5-methoxypyridin-3-yl)-7-thia-2,5,9-triazatricyclo[6.4.0.0^2,6]dodeca-1(12),3,5,8,10-pentaene-4-carboxamide] yielded an IC50 of under 100 nM. Work on `COc1cncc(NC(=O)c2ccn3c(n2)nc2ccc(-c4cncc(OC)c4)cc23)c1` [N,4-bis(5-methoxypyridin-3-yl)-1,8,10-triazatricyclo[7.4.0.0^2,7]trideca-2(7),3,5,8,10,12-hexaene-11-carboxamide] yielded an IC50 of under 100 nM. Compound `COc1cncc(NC(=O)c2ccn3c(n2)nc2cc(-c4cncc(OC)c4)ccc23)c1` [N,5-bis(5-methoxypyridin-3-yl)-1,8,10-triazatricyclo[7.4.0.0^2,7]trideca-2(7),3,5,8,10,12-hexaene-11-carboxamide] has an IC50 of under 100 nM. In the case of `COc1ccc2c(c1)sc1nc(C(=O)Nc3ccc4occc4c3)cn12` [N-(1-benzofuran-5-yl)-10-methoxy-7-thia-2,5-diazatricyclo[6.4.0.0^2,6]dodeca-1(12),3,5,8,10-pentaene-4-carboxamide], the IC50 is reported as under 100 nM. In the case of `Cn1cc(NC(=O)c2ccn3c(n2)nc2ccccc23)cnc1=O` [N-(1-methyl-2-oxo-1,2-dihydropyrimidin-5-yl)-1,8,10-triazatricyclo[7.4.0.0^2,7]trideca-2(7),3,5,8,10,12-hexaene-11-carboxamide], the IC50 is reported as under 100 nM. In the case of `Cn1nc(NC(=O)c2ccn3c(n2)nc2ccccc23)ccc1=O` [N-(1-methyl-6-oxo-1,6-dihydropyridazin-3-yl)-1,8,10-triazatricyclo[7.4.0.0^2,7]trideca-2(7),3,5,8,10,12-hexaene-11-carboxamide], the IC50 is reported as under 100 nM. Compound `C=CCOc1ccc2c(c1)sc1nc(C(=O)Nc3ccc(=O)n(C)n3)cn12` [N-(1-methyl-6-oxo-1,6-dihydropyridazin-3-yl)-10-(prop-2-en-1-yloxy)-7-thia-2,5-diazatricyclo[6.4.0.0^2,6]dodeca-1(12),3,5,8,10-pentaene-4-carboxamide] has an IC50 of under 100 nM.
